What was measured:
[1] = molecular target: T1, recombinant human heparanase (Homo sapiens, UniProt Q9Y251); assay: Heparanase inhibition assay (fondaparinux cleavage, WST-1); settings: read-out: Ki Heparanase; IC50 converted into Ki; fondaparinux 100 μM, pH 5.0
T1 sequence (Q9Y251 158-543 limits assumed): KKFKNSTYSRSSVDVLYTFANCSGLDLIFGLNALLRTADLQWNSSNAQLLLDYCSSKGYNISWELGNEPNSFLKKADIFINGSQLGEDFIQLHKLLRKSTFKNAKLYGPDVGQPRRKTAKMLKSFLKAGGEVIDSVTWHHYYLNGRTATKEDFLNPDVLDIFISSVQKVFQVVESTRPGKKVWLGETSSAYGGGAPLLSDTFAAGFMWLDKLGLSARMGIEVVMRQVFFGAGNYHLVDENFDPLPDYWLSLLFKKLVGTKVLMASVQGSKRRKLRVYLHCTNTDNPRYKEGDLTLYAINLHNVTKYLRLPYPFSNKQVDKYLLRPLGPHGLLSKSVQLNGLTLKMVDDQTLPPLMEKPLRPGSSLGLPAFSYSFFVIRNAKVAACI
T1 sequence (Q9Y251 36-109 limits assumed): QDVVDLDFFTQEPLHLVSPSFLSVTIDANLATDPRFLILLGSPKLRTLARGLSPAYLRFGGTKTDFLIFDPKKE

FGF-1 = FGF-1 (Homo sapiens, UniProt P05230); assay: Growth factor binding assay (SPR solution affinity), FGF-1; settings: SPR, HBS-EP buffer, 25° C.; read-out: Kd FGF-1
Chain of FGF-1 (P05230 whole entry, species assumed): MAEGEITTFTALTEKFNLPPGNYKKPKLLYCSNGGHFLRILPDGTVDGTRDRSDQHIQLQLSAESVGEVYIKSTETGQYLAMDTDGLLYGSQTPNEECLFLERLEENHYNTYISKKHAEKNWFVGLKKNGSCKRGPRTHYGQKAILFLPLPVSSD

RSV = assay: Viral plaque number-reduction assay, RSV; settings: human respiratory syncytial virus, read-out: RSV IC50
In short: (§1)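 200 PFU virus premixed 10 min with compound (100 μg/mL screen) and kept throughout infection. HSV plaques in GMK AH1 cells, RSV (strain A-2) in HEp-2 cells. Methylcellulose overlay, 37 °C, crystal violet staining after 2 days (HSV-2) or 3 days (HSV-1); plaque numbers counted.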

HSV-2 = assay: Viral plaque number-reduction assay, HSV-2; settings: Human alphaherpesvirus 2, read-out: HSV-2 IC50
In short: as §1

[2] = system: pooled normal human plasma; assay: Anticoagulant activity, APTT; settings: 0.1 mg/mL in normal pooled human plasma
Method: APTT measurements were performed on a STAGO STA-Compact Coagulation Analyser using standard protocols according to the manufacturer's instructions. Unfractionated heparin (UFH) was used as a control.

[3] = system: normal pooled human plasma; assay: Anticoagulant activity, Heptest; settings: 0.1 mg/mL in normal pooled human plasma
FGF-2 = FGF-2 (Homo sapiens, UniProt P09038); assay: Growth factor binding assay (SPR solution affinity), FGF-2; settings: SPR, HBS-EP buffer containing 0.3 M NaCl, 25° C.; read-out: Kd FGF-2
Chain of FGF-2 (P09038 143-288, species assumed): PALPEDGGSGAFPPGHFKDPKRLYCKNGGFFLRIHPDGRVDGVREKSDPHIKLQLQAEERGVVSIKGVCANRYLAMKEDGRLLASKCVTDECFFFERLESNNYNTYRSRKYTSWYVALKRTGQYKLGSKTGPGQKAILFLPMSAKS
In short: (§2)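 Kd measured by SPR solution affinity: fixed growth factor with varying ligand competing for heparin-coated sensorchip, 25 °C. Buffer HBS-EP pH 7.4 (150 mM NaCl) for FGF-1 and VEGF; FGF-2 with 0.3 M NaCl. Duplicate values averaged.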

VEGF = molecular target: T2, VEGF (Homo sapiens, UniProt P15692); assay: Growth factor binding assay (SPR solution affinity), VEGF; settings: HBS-EP buffer, 25° C.
T2 sequence (P15692 207-395): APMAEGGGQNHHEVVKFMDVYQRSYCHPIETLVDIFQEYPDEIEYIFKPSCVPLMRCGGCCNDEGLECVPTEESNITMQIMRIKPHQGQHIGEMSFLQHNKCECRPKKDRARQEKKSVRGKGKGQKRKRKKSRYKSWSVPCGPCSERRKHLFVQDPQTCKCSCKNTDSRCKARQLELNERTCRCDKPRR
In short: as §2

Ki [1]: 9.1 ± 0.3 nM
Kd (FGF-1): 4.94 ± 0.08 nM
IC50 (RSV): 1.4 µg/mL
IC50 (HSV-2): 1 µg/mL
Kd (FGF-2): 311 ± 25 nM
Kd (VEGF): 14 ± 4 nM
Compound: CCCCCCCCCCCCCCCCCC(=O)NCCCO[C@@H]1O[C@H](COS(=O)(=O)[O-])[C@@H](O[C@H]2O[C@H](COS(=O)(=O)[O-])[C@@H](O[C@H]3O[C@H](COS(=O)(=O)[O-])[C@@H](O[C@H]4O[C@H](COS(=O)(=O)[O-])[C@@H](OS(=O)(=O)[O-])[C@H](OS(=O)(=O)[O-])[C@H]4OS(=O)(=O)[O-])[C@H](OS(=O)(=O)[O-])[C@H]3OS(=O)(=O)[O-])[C@H](OS(=O)(=O)[O-])[C@H]2OS(=O)(=O)[O-])[C@H](OS(=O)(=O)[O-])[C@H]1OS(=O)(=O)[O-].[Na+].[Na+].[Na+].[Na+].[Na+].[Na+].[Na+].[Na+].[Na+].[Na+].[Na+].[Na+].[Na+] [Compound 128, 3-Stearamidopropyl 2,3,4,6-tetra-O-sulfo-α-D-glucopyranosyl-(1→4)-2,3,6-tri-O-sulfo-α-D-glucopyranosyl-(1→4)-2,3,6-tri-O-sulfo-α-D-glucopyranosyl-(1→4)-2,3,6-tri-O-sulfo-β-D-glucopyranoside, tridecasodium salt]
APTT [2]: 65.8 s
Heptest [3]: 32.2 s

From patent publication US20150065440A1 (Progen Pharmaceuticals Limited, priority 2007, published 2015)
